Calls of active or inactive are those of the source. The calls are words filed in the database; no cut-off is given here.
What was measured:
HepG2 [1] = test: Cytotoxicity against human HepG2 cells at 50 umol/L; format: functional, cell-based
HMO2 = test: Cytotoxicity against human HMO2 cells at 50 umol/L; format: functional, cell-based
MCF7 [2] = test: Cytotoxicity against human MCF7 cells at 50 umol/L; format: functional, cell-based
HepG2 [3] = test: Cytotoxicity against human HepG2 cells; format: functional
MCF7 [4] = test: Cytotoxicity against human MCF7 cells; format: functional
[5] = Cytotoxicity against human HMO2 cells; format: functional
[6] = Cytotoxicity against human KATO III cells; format: functional, KATO III cell

Row | Structure (SMILES) | Activity (HepG2 [1]) | Activity (HMO2) | Activity (MCF7 [2]) | GI50 (HepG2 [3]) [nM] | TGI (HepG2 [3]) [nM] | GI50 (MCF7 [4]) [nM] | TGI (MCF7 [4]) [nM] | GI50 [5] [nM] | TGI [5] [nM] | GI50 [6] [nM] | TGI [6] [nM]
1 | C/C=C1/C2=CCCN3C(=O)O[C@H]([C@H]1O)[C@H]23 | inactive | inactive | inactive | – | – | – | – | – | – | – | –
2 | C/C=C1/C2=CCCN3C(=O)O[C@H]([C@H]1O[C@@H]1OC[C@@H](O)[C@H](O)[C@H]1O)[C@H]23 | – | – | – | 300 | 5000 | 10000 | 30000 | 150 | > 50000 | 700 | 1000

Source: ChEMBL document CHEMBL1150219, “New co-metabolites of the streptazolin pathway” (2001)
